In PMC11562385 (RSC Chemical Biology, 2024):
Where two headings read alike, the source gives them in different places. Bridge positions count the residues as written; N and C are the ends. Square brackets hold non-standard residues; d marks the D form. Peptide text beside a SMILES is read from it. * marks the point of attachment. Dab = NCC[C@H](N)C(=O)O; X1 = CN(C)C/C=C/C(=O)*

How the values were obtained:
PD1:PDL1 interaction = biological target: T1, PD1:PDL1 interaction (Homo sapiens, UniProt Q15116); assay: PD1/PDL1 immunoblocking ELISA (BPS Bioscience kit cat # 72005); assay type: binding; conditions: for LE (ligand efficiency): LE = -RTln(EC50)/HA, HA = non-hydrogen atoms omitting the strap (RWV•••VWE)
T1 construct: purchased BPS Bioscience 72005
T1 sequence (Q15116 25-167 limits assumed): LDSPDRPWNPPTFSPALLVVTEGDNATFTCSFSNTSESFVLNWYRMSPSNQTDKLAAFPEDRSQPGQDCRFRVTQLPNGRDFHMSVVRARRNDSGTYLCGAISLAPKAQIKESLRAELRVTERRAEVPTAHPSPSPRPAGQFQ

[1] = Variable-temperature CD melting curves (CD-melts at 228±2 nm and 202±2 nm), individual and global two-state fits; assay type: physicochemical; conditions: for ΔGF0: CD-melt at 228±2 nm, individual two-state Gibbs-Helmholtz fit (Origin 9.0), phosphate buffer 15 mM pH 6.5 ± MeOH; for ΔGF0 / DHm (fitted value, results from OriginPro) / Tm (fitted value, results from OriginPro): 0-95 °C; for Tm / Hairpin %-fold 291K / Hairpin %-fold 310K: Table S5, individual fit; for Tm: 228±2 nm; for -TΔSF0 / ΔCpF0 / ΔHF0 / ΔHm: as E16; for VT-CD %-fold: folded fraction (χF) at 25 °C from CD-melts, (R) regular / (B) bulged fold; for VT-CD %-fold / VT-CD Tm (°C): phosphate buffer 15 mM pH 6.5, up to 20% MeOH; for %fold 291K: fraction folded at 291 K from two-state fit of CD-melt; for VT-CD Tm (°C): melting temperature from CD-melts; for DHm (fitted value, OriginPro two-state fit of CD-melt) / Tm (fitted value, OriginPro two-state fit of CD-melt): variable-temperature CD melt 0-95 °C, θ - θcoil(95) vs T, l = 0.1 cm, individual two-state fit; for DHm (fitted value, results from OriginPro) / Tm (fitted value, results from OriginPro): two-state fit of the CD melt θ - θcoil(95) vs T, peptide c 3.2e-5 to 5e-5 M
How it was run: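 Far-UV CD melts (0 to 95 °C) at 15-120 µM peptide in 15 mM phosphate buffer, concentration set by Trp/Tyr absorbance at 280 nm; CD-exciton intensity taken as %-folding probe. Melting curves fitted individually and globally to a two-state model.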

[2] = ELISA, mean of three independent experiments, read-out: EC50 Value

SMILES | LE (ligand efficiency) (PD1:PDL1 interaction) | ΔGF0 [1] [kcal/mol] | Tm [1] [oC] | Hairpin %-fold 291K ([1]; 291 K) [%] | Hairpin %-fold 310K [1] [%] | -TΔSF0 [1] [kcal/mol] | ΔCpF0 [1] [cal.deg-1.mol-1] | ΔHF0 [1] [kcal/mol] | ΔHm [1] [kcal/mol] | VT-CD %-fold [1] | %fold 291K [1] [%] | VT-CD Tm (°C) [1] [°C] | DHm (fitted value, OriginPro two-state fit of CD-melt) [1] [kcal/mol] | Tm (fitted value, OriginPro two-state fit of CD-melt) [1] [K] | EC50 (PD1:PDL1 interaction; [2]) [nM] | DHm (fitted value, results from OriginPro) ([1]; l 0.1 cm) [kcal/mol] | Tm (fitted value, results from OriginPro) ([1]; l 0.1 cm) [K] | also measured
CC(C)[C@H](NC(=O)[C@H](Cc1c[nH]c2ccccc12)NC(=O)[C@@H](N)CCCNC(=N)N)C(=O)N[C@@H](C)C(=O)N[C@@H](CCCNC(=N)N)C(=O)N[C@@H](CCCNC(=N)N)C(=O)N[C@@H](CC(=O)O)C(=O)N[C@@H](Cc1ccc(O)cc1)C(=O)N[C@@H](CCCNC(=N)N)C(=O)N[C@@H](Cc1ccccc1)C(=O)N[C@@H](CC(=O)O)C(=O)N[C@@H](CCNC(=O)/C=C/CN(C)C)C(=O)NCC(=O)N[C@@H](Cc1ccccc1)C(=O)N[C@@H](CC(=O)O)C(=O)N[C@@H](Cc1ccc(O)cc1)C(=O)N[C@@H](Cc1c[nH]c2ccccc12)C(=O)N[C@H](C(=O)N[C@@H](Cc1c[nH]c2ccccc12)C(=O)N[C@@H](CCC(=O)O)C(=O)O)C(C)C [2cc] (H-RWVARRDYRFD[Dab](X1)GFDYWVWE-OH; N-terminus assumed) | 0.13 | -0.93 ± 0.002 | 48.7 | 87 ± 1 | 70 ± 1 | 8.50 ± 0.04 | -268 ± 2 | -9.43 ± 0.04 | -15.8 ± 0.04 | – | – | – | – | – | – | – | – | Tm 228 nm Glob. ([1]; global fit (shared maximum molar ellipticity), 228 nm): 51.7 oC; Tm 202 nm Glob. ([1]; global fit, 202 nm): 9.7 oC; χF (291 K) 202 nm Glob. ([1]; global fit, 202 nm, 291 K): 47%; χF (291 K) 228 nm Glob. ([1]; global fit, 228 nm, 291 K): 95%; χF (291 K) 202 nm Indiv. ([1]; individual fit, 202 nm, 291 K): 83%; χF (291 K) 228 nm Indiv. ([1]; individual fit, 228 nm, 291 K): 88%; Tm 228 nm Indiv. ([1]; individual fit, exciton band 228 nm): 49.8 oC; Tm 202 nm Indiv. ([1]; individual fit, β-bulge band 202 nm): 44.3 oC; DHm (fitted value, OriginPro) ([1]; two-state fit of the CD melt (θ - θcoil(95) vs T, 0-95 °C), l 0.1 cm, enthalpy of folding at Tm): -15.8096 kcal/mol
CSCC[C@H](NC(=O)[C@H](CC(=O)O)NC(=O)CNC(=O)[C@H](CCCNC(=N)N)NC(=O)[C@H](Cc1ccc(O)cc1)NC(=O)[C@H](CC(=O)O)NC(=O)[C@H](CCCNC(=N)N)NC(=O)[C@H](CCCNC(=N)N)NC(=O)[C@H](C)NC(=O)[C@@H](NC(=O)[C@H](Cc1c[nH]c2ccccc12)NC(=O)[C@@H](N)CCCNC(=N)N)C(C)C)C(=O)NCC(=O)N[C@@H](Cc1ccccc1)C(=O)N[C@@H](CC(=O)O)C(=O)N[C@@H](Cc1ccc(O)cc1)C(=O)N[C@@H](Cc1c[nH]c2ccccc12)C(=O)N[C@@H](Cc1c[nH]cn1)C(=O)N[C@@H](Cc1c[nH]c2ccccc12)C(=O)N[C@@H](CCC(=O)O)C(=O)O [2d] (H-RWVARRDYRGDMGFDYWHWE-OH) | 0.06 | -1.59 ± 0.01 | 50.9 | 97 ± 1 | 80 ± 1 | 18.2 ± 0.2 | 0 | -19.8 ± 0.2 | -19.8 ± 0.07 | 97% (B) | 97 | 51 | -19.8087 | 324.048 | – | – | – | –
CSCC[C@H](NC(=O)[C@H](CC(=O)O)NC(=O)[C@H](Cc1ccccc1)NC(=O)[C@H](CCCNC(=N)N)NC(=O)[C@H](Cc1ccc(O)cc1)NC(=O)[C@H](CC(=O)O)NC(=O)[C@H](CCCNC(=N)N)NC(=O)[C@H](CCCNC(=N)N)NC(=O)[C@H](C)NC(=O)[C@@H](NC(=O)[C@H](Cc1c[nH]c2ccccc12)NC(=O)[C@@H](N)CCCNC(=N)N)C(C)C)C(=O)NCC(=O)N[C@@H](Cc1ccccc1)C(=O)N[C@@H](CC(=O)O)C(=O)N[C@@H](Cc1ccc(O)cc1)C(=O)N[C@@H](Cc1c[nH]c2ccccc12)C(=O)N[C@@H](Cc1c[nH]cn1)C(=O)N[C@@H](Cc1c[nH]c2ccccc12)C(=O)N[C@@H](CCC(=O)O)C(=O)O [2e] (H-RWVARRDYRFDMGFDYWHWE-OH) | 0.06 | 0.088 ± 0.02 | 3.96 | 48 ± 1 | 42 ± 1 | 2.40 ± 0.02 | -107±5 | -2.31 ± 0.03 | -0.070 ± 0.6 | 48% (B) | 48 | 4 | -0.0700474 | 277.107 | – | – | – | –
CSCC[C@H](NC(=O)[C@H](CC(=O)O)NC(=O)CNC(=O)[C@H](CCCNC(=N)N)NC(=O)[C@H](Cc1ccc(O)cc1)NC(=O)[C@H](CC(=O)O)NC(=O)[C@H](CCCNC(=N)N)NC(=O)[C@H](CCCNC(=N)N)NC(=O)[C@H](CCCCN)NC(=O)[C@@H](NC(=O)[C@H](Cc1c[nH]c2ccccc12)NC(=O)[C@@H](N)CCCNC(=N)N)C(C)C)C(=O)NCC(=O)N[C@@H](Cc1ccccc1)C(=O)N[C@@H](CC(=O)O)C(=O)N[C@@H](Cc1ccc(O)cc1)C(=O)N[C@@H](Cc1c[nH]c2ccccc12)C(=O)N[C@H](C(=O)N[C@@H](Cc1c[nH]c2ccccc12)C(=O)N[C@@H](CCC(=O)O)C(=O)O)C(C)C [2f] (H-RWVKRRDYRGDMGFDYWVWE-OH) | 0.06 | -1.33 ± 0.01 | 65.4 | 92 ± 1 | 85 ± 1 | 5.76 ± 0.07 | -208 ±2 | -7.09 ± 0.07 | -15.5 ± 0.04 | 92% (B) | 92 | – | -15.5228 | 338.533 | 862 | – | – | –
CSCC[C@H](NC(=O)[C@H](CC(=O)O)NC(=O)CNC(=O)[C@H](CCCNC(=N)N)NC(=O)[C@H](Cc1ccc(O)cc1)NC(=O)[C@H](CC(=O)O)NC(=O)[C@H](CCCNC(=N)N)NC(=O)[C@H](CCCNC(=N)N)NC(=O)[C@H](C)NC(=O)[C@@H](NC(=O)[C@H](Cc1c[nH]c2ccccc12)NC(=O)[C@@H](N)CCCNC(=N)N)C(C)C)C(=O)NCC(=O)N[C@@H](Cc1ccccc1)C(=O)N[C@@H](CC(N)=O)C(=O)N[C@@H](Cc1ccc(O)cc1)C(=O)N[C@@H](Cc1c[nH]c2ccccc12)C(=O)N[C@H](C(=O)N[C@@H](Cc1c[nH]c2ccccc12)C(=O)N[C@@H](CCC(=O)O)C(=O)O)C(C)C [2j] (H-RWVARRDYRGDMGFNYWVWE-OH) | 0.07 | -1.63 ± 0.01 | 57.8 | 97 ± 1 | 84 ± 1 | 14.3 ± 0.09 | -29 ± 3 | -15.9 ± 0.02 | -16.8 ± 0.03 | 97% (B) | – | 58 | – | – | – | -16.8394 | 330.952 | EC50 (PD1:PDL1 interaction; PD1:PDL1 inhibition EC50, ELISA, PDL1-coated plate, biotin-labeled human PD-1, 2 h rt, chemiluminescence, Hill fit, mean ± SD, n = 3, SD): 100 ± 10 nM
CSCC[C@@H]1NC(=O)[C@H](CC(=O)O)NC(=O)[C@H](Cc2ccccc2)NC(=O)[C@H](CCCNC(=N)N)NC(=O)[C@H](Cc2ccc(O)cc2)NC(=O)[C@H](CC(=O)O)NC(=O)[C@H](CCCNC(=N)N)NC(=O)[C@H](CCCNC(=N)N)NC(=O)[C@H](C)NC(=O)[C@@H](NC(=O)[C@H](Cc2c[nH]c3ccccc23)NC(=O)[C@@H](N)CCCNC(=N)N)CSSC[C@@H](C(=O)N[C@@H](Cc2c[nH]c3ccccc23)C(=O)N[C@@H](CCC(=O)O)C(=O)O)NC(=O)[C@H](Cc2c[nH]c3ccccc23)NC(=O)[C@H](Cc2ccc(O)cc2)NC(=O)[C@H](CC(=O)O)NC(=O)[C@H](Cc2ccccc2)NC(=O)CNC1=O [2l] (H-RWCARRDYRFDMGFDYWCWE-OH; disulfide 3-18) | 0.06 | -0.77 ± 0.01 | 66.0 | 82 ± 1 | 71 ± 1 | 4.69 ± 0.05 | -44 ± 2 | -5.46 ± 0.05 | -7.29 ± 0.04 | – | – | – | – | – | 584 | -7.28521 | 339.181 | –
